Test results: US11827646B2, “Compounds for treating spinal muscular atrophy” (Hoffmann-La Roche Inc., priority 2014, dated 2023)

Tests used:
[1] = tested on: SMN protein in SMA patient fibroblast cells (GM03813); test: SMN protein assay in cultured cells (SMN HTRF); format: cell-based; conditions: Homo sapiens, SMA Type 1 patient fibroblasts, 48 hours; for EC (1.5-fold): 7-point concentration curve, 1.5 times SMN protein vs vehicle, read-out: EC1.5x SMN protein (EC1.5x concentration for SMN protein expression); for maximal fold induction: fold increase relative to vehicle control, read-out: max. fold increase of SMN protein
Description: The term “EC1.5x concentration for SMN protein expression” (or “EC1.5x SMN protein”) is defined as that concentration of test compound that is effective in producing 1.5 times the amount of SMN protein in an SMA patient fibroblast cell compared to the amount produced from the vehicle control.
The SMN HTRF (homogeneous time resolved fluorescence) assay is used to quantify the level of SMN protein in SMA patient fibroblast cells treated with test compounds. Materials used and respective sources are listed below in Table 4.
Cells are thawed and cultured in DMEM-10% FBS for 72 hours. Cells are trypsinized, counted and re-suspended to a concentration of 25,000 cells/mL in DMEM-10% FBS. The cell suspensions are plated at 5,000 cells per well in a 96 well microtiter plate and incubated for 3 to […]. Test compounds are serially diluted 3.16-fold in 100% DMSO to generate a 7-point concentration curve. 1 μL of test compound solution is transferred to cell-containing wells and cells are incubated for 48 hours in a cell culture incubator (37° C., 5% CO2, […]). Triplicate samples are set up for each test compound concentration. After 48 hours, the supernatant is removed from the wells and 25 μL of the RIPA lysis buffer, containing protease inhibitors, is added to the wells and incubated with shaking at room temperature for 1 hour. 25 μL of the diluent is added and then 35 μL of the resulting lysate is transferred to a 384-well plate, where each well contains 5 μL of the antibody solution (1:100 dilution of anti-SMN d2 and anti-SMN kryptate in SMN reconstitution buffer). The plate is centrifuged for 1 minute to bring the solution to the bottom of the wells, then incubated overnight at room temperature. Fluorescence for each well of the plate at 665 nm and 620 nm is measured on an EnVision multilabel plate reader (Perkin-Elmer).
The normalized fluorescence signal is calculated for each sample, Blank and vehicle control well by dividing the signal at 665 nm by the signal at 620 nm. Normalizing the signal accounts for possible fluorescence quenching due to the matrix effect of the lysate. The ΔF value (a measurement of SMN protein abundance as a percent value) for each sample well is calculated by subtracting the normalized average fluorescence for the Blank control wells from the normalized fluorescence for each sample well, then dividing this difference by the normalized average fluorescence for the Blank control wells and multiplying the resulting value by 100. The ΔF value for each sample well represents the SMN protein abundance from test compound-treated samples. The ΔF value for each sample well is divided by the ΔF value for the vehicle control wells to calculate the fold increase in SMN protein abundance relative to the vehicle control. Table 5 provides EC1.5x concentrations for SMN protein expression that was obtained from the 7-point concentration data generated according to the above procedure for particular compounds of the present invention.
Table 6 provides the maximum fold increase of SMN protein that was obtained from the 7-point concentration data generated according to the above procedure for particular compounds of the present invention

[2] = tested on: full length SMN2 minigene mRNA (HEK293H cells stably transfected with SMN2-A minigene); test: SMN2 minigene mRNA splicing RT-qPCR assay in cultured cells; format: cell-based; conditions: Homo sapiens, HEK293-H, 24 hours, 7-point concentration curve, 1.5-fold increase relative to vehicle, read-out: EC1.5x minigene (EC1.5x concentration for production of full length SMN2 minigene mRNA)
Description: The term “EC1.5x concentration for production of full length SMN2 minigene mRNA” (or “EC1.5x minigene”) is defined as that concentration of test compound that 1 s effective m increasing the amount of full length SMN2 minigene mRNA to a level 1.5-fold greater relative to that in vehicle-treated cells.
The reverse transcription-quantitative PCR-based (RT-qPCR) assay is used to quantify the level of the full length SMN2 minigene (referred to herein by the term “FL SMN2mini”) mRNA containing SMN2 exon 7 in a HEK293H cell line stably transfected with said minigene and treated with a test compound. Materials used and respective sources are listed below in Table 1.
The SMN2-A minigene construct was prepared as described in International Patent Application WO2009/151546A1 page 145 paragraph [00400] to page 147 paragraph [00412](incl. FIG. 1 and FIG. 3 therein).
HEK293H cells stably transfected with the SMN2-A minigene construct (10,000 cells/well) are seeded in 200 μL of cell culture medium (DMEM plus 10% FBS, with 200 μg/mL hygromycin) in 96-well flat-bottom plates and the plate is immediately swirled to ensure proper dispersal of cells and the formation of an even monolayer of cells. Cells are allowed to attach for 6 hours. Test compounds are serially diluted 3.16-fold in 100% DMSO to generate a 7-point concentration curve. A solution of test compound (1 μL, 200× in DMSO) is added to each cell-containing well and the plate is incubated for 24 hours in a cell culture incubator (37° C., 5% CO2, 100% relative humidity). 2 replicates are prepared for each test compound concentration. The cells are then lysed in the Cells-To-Ct lysis buffer and the lysate is stored at −80° C.
Full length SMN2-A minigene and GAPDH mRNA are quantified using the primers and probes referenced in Table 2. Primer SMN Forward A (SEQ ID NO.1) hybridizes to a nucleotide sequence in exon 7 (nucleotide 22 to nucleotide 40), primer SMN Reverse A (SEQ ID NO.2) hybridizes to a nucleotide sequence in the coding sequence of Firefly luciferase, SMN Probe A (SEQ ID NO.3) hybridizes to a nucleotide sequence in exon 7 (nucleotide 50 to nucleotide 54) and exon 8 (nucleotide 1 to nucleotide 21). The combination of these three oligonucleotides detects only SMN1 or SMN2 minigenes (RT-qPCR) and will not detect endogenous SMN1 or SMN2 genes.
The SMN forward and reverse primers are used at final concentrations of 0.4 μM. The SMN probe is used at a final concentration of 0.15 μM. The GAPDH primers are used at final concentrations of 0.2 μM and the probe at 0.15 μM.
The SMN2-minigene GAPDH mix (15 μL total volume) is prepared by combining 7.5 μL of 2×RT-PCR buffer, 0.4 μL of 25×RT-PCR enzyme mix, 0.75 μL of 20×GAPDH primer-probe mix, 4.0075 μL of water, 2 μL of 10-fold diluted cell lysate, 0.06 μL of 100 µM SMN forward primer, 0.06 μL of 100 μM SMN reverse primer, and 0.225 μL of 100 μM SMN probe.
PCR is carried out at the following temperatures for the indicated time: Step 1: 48° C. (15 min); Step 2: 95° C. (10 min); Step 3: 95° C. (15 sec); Step 4: 60° C. (1 min); then repeat Steps 3 and 4 for a total of 40 cycles.
Each reaction mixture contains both SMN2-A minigene and GAPDH primers/probe sets (multiplex design), allowing simultaneous measurement of the levels of two transcripts.
The increase in the abundance of the FL SMN2mini mRNA relative to that in cells treated with vehicle control is determined from real-time PCR data using a modified ΔΔCt method (as described in Livak and Schmittgen, Methods, 2001, 25:402-8). The amplification efficiency E is calculated from the slope of the amplification curve for FL SMN2mini and GAPDH individually. The abundance of FL SMN2mini and GAPDH mRNA are then calculated as (1+E)^−Ct, where Ct is the threshold value for each amplicon. The abundance of FL SMN2mini mRNA is normalized to GAPDH mRNA abundance. […]

`Cc1cn2nc(-c3cc(=O)n4cc(N5CCNC(C)(C)C5)ccc4n3)ccc2n1` [Example 23, 7-(3,3-dimethylpiperazin-1-yl)-2-(2-methylimidazo[1,2-b]pyridazin-6-yl)pyrido[1,2-a]pyrimidin-4-one] showed an EC (1.5-fold) [1] of 0.0239 µM, a maximal fold induction [1] of 1.63 and an EC (1.5-fold) [2] of 0.0034 µM.

With `Cc1cn2nc(-c3cc(=O)n4cc(N5CCN6CCC[C@@]6(C)C5)ccc4n3)cc(C)c2n1` [Example 5, 7-[(8aS)-8a-methyl-1,3,4,6,7,8-hexahydropyrrolo[1,2-a]pyrazin-2-yl]-2-(2,8-dimethylimidazo[1,2-b]pyridazin-6-yl)pyrido[1,2-a]pyrimidin-4-one] the EC (1.5-fold) [1] was 0.0041 µM, the maximal fold induction [1] was 1.71 and the EC (1.5-fold) [2] was 0.0006 µM.

In the case of `Cc1cn2nc(-c3cc(=O)n4cc(N5CCN6CCC[C@H]6C5)ccc4n3)cc(C)c2n1` [Example 3, 7-[(8aS)-3,4,6,7,8,8a-hexahydro-1H-pyrrolo[1,2-a]pyrazin-2-yl]-2-(2,8-dimethylimidazo[1,2-b]pyridazin-6-yl)pyrido[1,2-a]pyrimidin-4-one], the EC (1.5-fold) [1] was 0.0256 µM, the maximal fold induction [1] was 1.81 and the EC (1.5-fold) [2] was 0.0032 µM.

`Cc1cn2nc(-c3cc(=O)n4cc(N5C[C@@H](C)N[C@@H](C)C5)ccc4n3)ccc2n1` [Example 14, 7-[(3R,5S)-3,5-dimethylpiperazin-1-yl]-2-(2-methylimidazo[1,2-b]pyridazin-6-yl)pyrido[1,2-a]pyrimidin-4-one] was tested, and the EC (1.5-fold) [1] was 0.0176 µM, the maximal fold induction [1] was 1.86 and the EC (1.5-fold) [2] was 0.0041 µM.

`Cc1cn2nc(-c3cc(=O)n4cc(N5CCCNCC5)ccc4n3)cc(C)c2n1` [Example 10, 7-(1,4-diazepan-1-yl)-2-(2,8-dimethylimidazo[1,2-b]pyridazin-6-yl)pyrido[1,2-a]pyrimidin-4-one] was tested, and the EC (1.5-fold) [1] was 0.0228 µM, the maximal fold induction [1] was 1.95 and the EC (1.5-fold) [2] was 0.0064 µM.

In the case of `Cc1cn2nc(-c3cc(=O)n4cc(N5CCNC(C)(C)C5)cc(C)c4n3)ccc2n1` [Example 36, 7-(3,3-dimethylpiperazin-1-yl)-9-methyl-2-(2-methylimidazo[1,2-b]pyridazin-6-yl)pyrido[1,2-a]pyrimidin-4-one], the EC (1.5-fold) [1] was 0.0344 µM, the maximal fold induction [1] was 1.77 and the EC (1.5-fold) [2] was 0.005 µM.

Compound `Cc1cn2nc(-c3cc(=O)n4cc(N5CCN(C)CC5)ccc4n3)ccc2n1` [Example 1, 2-(2-methylimidazo[1,2-b]pyridazin-6-yl)-7-(4-methylpiperazin-1-yl)pyrido[1,2-a]pyrimidin-4-one] has an EC (1.5-fold) [1] of 0.0108 µM, a maximal fold induction [1] of 1.84 and an EC (1.5-fold) [2] of 0.0035 µM.

Work on `Cc1cn2nc(-c3cc(=O)n4cc(N5CCN6CCC[C@]6(C)C5)ccc4n3)ccc2n1` [Example 17, 7-[(8aR)-8a-methyl-1,3,4,6,7,8-hexahydropyrrolo[1,2-a]pyrazin-2-yl]-2-(2-methylimidazo[1,2-b]pyridazin-6-yl)pyrido[1,2-a]pyrimidin-4-one] yielded an EC (1.5-fold) [1] of 0.0202 µM, a maximal fold induction [1] of 1.98 and an EC (1.5-fold) [2] of 0.0064 µM.

Compound `Cc1cn2nc(-c3cc(=O)n4cc(N5CCN[C@@H](C)C5)cc(C)c4n3)ccc2n1` [Example 33, 9-methyl-2-(2-methylimidazo[1,2-b]pyridazin-6-yl)-7-[(3S)-3-methylpiperazin-1-yl]pyrido[1,2-a]pyrimidin-4-one] has an EC (1.5-fold) [1] of 0.004 µM, a maximal fold induction [1] of 1.82 and an EC (1.5-fold) [2] of 0.0005 µM.

`Cc1cn2nc(-c3cc(=O)n4cc(N5CC[C@H](N6CCCC6)C5)ccc4n3)ccc2n1` [Example 31, 2-(2-methylimidazo[1,2-b]pyridazin-6-yl)-7-[(3S)-3-pyrrolidin-1-ylpyrrolidin-1-yl]pyrido[1,2-a]pyrimidin-4-one] gave an EC (1.5-fold) [1] of 0.0277 µM, a maximal fold induction [1] of 1.65 and an EC (1.5-fold) [2] of 0.0067 µM.

In the case of `Cc1cn2nc(-c3cc(=O)n4cc(N5CCN[C@H](C)C5)cc(C)c4n3)ccc2n1` [Example 34, 9-methyl-2-(2-methylimidazo[1,2-b]pyridazin-6-yl)-7-[(3R)-3-methylpiperazin-1-yl]pyrido[1,2-a]pyrimidin-4-one], the EC (1.5-fold) [1] was 0.0044 µM, the maximal fold induction [1] was 1.89 and the EC (1.5-fold) [2] was 0.0009 µM.

`Cc1cn2nc(-c3cc(=O)n4cc(N5CCCNCC5)ccc4n3)ccc2n1` [Example 13, 7-(1,4-diazepan-1-yl)-2-(2-methylimidazo[1,2-b]pyridazin-6-yl)pyrido[1,2-a]pyrimidin-4-one] was tested, and the EC (1.5-fold) [1] was 0.003 µM, the maximal fold induction [1] was 1.91 and the EC (1.5-fold) [2] was 0.005 µM.
